Source: patent publication US20120094958A1, “QUINOLINES AS INHIBITORS OF FARNESYL PYROPHOSPHATE SYNTHASE” (NOVARTIS AG, priority 2008, published 2012)
pIC50: −log10 of the molar value. Structures can show the parent of a compound that is named as a salt. Where two headings read alike, the source gives them in different places.

Key:
[1] = target: T1, Recombinant human Farnesyl Pyrophosphate synthase (FPPS) (Homo sapiens, UniProt P14324); experiment: FPPS enzyme assay, scintillation proximity (FlashPlate); assay type: biochemical
T1 construct: made in house
T1 sequence (P14324 1-353 isoform P14324-2): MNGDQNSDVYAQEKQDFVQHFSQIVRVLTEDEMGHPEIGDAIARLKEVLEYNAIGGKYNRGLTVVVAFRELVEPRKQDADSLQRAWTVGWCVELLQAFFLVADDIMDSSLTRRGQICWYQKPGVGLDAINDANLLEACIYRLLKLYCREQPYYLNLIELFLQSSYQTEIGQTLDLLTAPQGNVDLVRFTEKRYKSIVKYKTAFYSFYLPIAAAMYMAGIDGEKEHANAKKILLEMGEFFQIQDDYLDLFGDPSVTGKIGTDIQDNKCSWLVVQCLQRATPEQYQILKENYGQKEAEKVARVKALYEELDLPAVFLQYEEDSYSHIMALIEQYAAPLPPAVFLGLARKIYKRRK

[2] = target: T2, FPPS (Farnesyl pyrophosphate synthase) (Homo sapiens, UniProt P14324); experiment: FPPS Assay: LC-MS Method; assay type: biochemical; settings: GPP/IPP 5 μM each, reaction stopped after 10 minutes
T2 sequence (P14324 1-353 isoform P14324-2): T1 sequence (P14324 1-353 isoform P14324-2)
Procedure: Recombinant human Farnesyl Pyrophosphate synthase (FPPS) was cloned, expressed and purified as previously described {J.-M. Rondeau et al., ChemMedChem 2006, 1, 267-271.} and stored as a 10 mg/mL stock solution in 25 mM Tris pH 7.4, 25 mM NaCl, 2 mM DTT (dithiothreitol). Geranyl pyrophosphate (GPP) was purchased from Anawa AG (Switzerland) and stored as a 1 mg/mL solution in 4 parts isopropanol:3 parts ammonia:1 part water. 1-[^3H]Isopentenyl pyrophosphate (IPP), 50 Ci/mmol; 1 Ci/mL, was purchased from Anawa AG and stored in ethanol:ammonia hydroxide 1:1 at −80 C. 1-[^3H] Farnesyl pyrophosphate triammonium salt, 100 Ci/mmol; 1 mCi/mL in 70% ethanol, 0.25 M ammonium bicarbonate was purchased from Anawa AG. Phospholipid-coated 384-well image FlashPlates™ were purchased from PerkinElmer. the assay buffer consisted of 20 mM HEPES pH7.4, 5 mM MgCl2 and 1 mM CaCl2.
Selected compounds are assayed in another FPPS based assay:
Into each well of a 384-well plate, 5 μL of compound in 20% DMSO/water is placed. 25 μL of GPP/IPP (5 μM each in assay buffer) is then added. The reaction is started with the addition of 10 μL of FPPS (diluted 1 to 10000 with assay buffer). After 10 minutes, the reaction is stopped by addition of 10 μL of 2 μM FSPP in 2% DMIPA/IPA. The reaction mixture is then extracted with 50 μL of n-pentanol using vortex mixing. After phase separation, 25 μL of the upper (n-pentanol) layer is transferred to a new 384-well plate and the pentanol is evaporated using a vacuum centrifuge. The dried residue is reconstituted in 50 μL of 0.1% DMIPA/water for analysis by the LC/MS/MS method.
LC/MS/MS analyses are performed on a Micromass Quattro Micro interfaced to an Agilent 1100 binary LC pump. Injection is performed by a Gilson 215/889 autosampler using an injection loop size of 2.5 μL. Chromatography is performed on a Waters 2.1×20 mm Xterra MS C18 5 μm guard column (P/N186000652) contained in a guard column holder (P/N 186000262) using 0.1% DMIPA/methanol as solvent A and 0.1% DMIPA/water as solvent B. The gradient is 5% A from 0.00 to 0.30 min, 50% A at 0.31 min, 80% A at 1.00 min, and 5% A from 1.01 to 2.00 min. The flow rate is 0.3 mL/min and the flow is diverted to waste from 0.00 to 0.50 min and again from 1.20 to 2.00 min.
The MRM transitions monitored are 381^−>79^− for FPP and 397^−>159^− for FSPP at a collision energy of 22 eV and a collision cell pressure of 2.1×10^−3 mbar of Ar. The dwell time per transition is 400 msec with a span of 0.4 Da. The interchannel delay and interscan delay are both 0.02 sec. Other mass spectrometric operating parameters are: capillary, 2.0 kV; cone, 35 V; extractor, 2.0 V, source temp., 100° C.; desolvation gas temp., 250° C.; desolvation gas flow, 650 L/hr; cone gas flow, 25 L/hr; multiplier, 650 V.
The total cycle time per sample is 2.5 minutes. Since the analysis is formatted for 384-well plates, a plate is analyzed in 16 hours. The chromatograms are processed using Quanlynx software, which divides the area of individual FPP peaks by the area of the FSPP peaks (internal standard). The resulting values are reported as the relative response for the corresponding sample well.

[3] = FlashPlate SPA, GPP 150 nM, [3H]-IPP 150 nM, FPPS 500 pM, 45 minutes at room temperature, highest concentration tested 100 μM, read-out: FPPS IC50

## CCOP(=O)(Cc1ccc2cccc(-c3cccc4ccccc34)c2n1)OCC [Example 11.6, (8-Naphthalen-1-yl-quinolin-2-ylmethyl)-phosphonic acid diethyl ester]
[1]
  pIC50: < 4.00

## O=P(O)(O)CNCc1ccc2cccc(-c3cccc4ccccc34)c2n1 [Example 12, {[(8-Naphthalen-1-yl-quinolin-2-ylmethyl)-amino]-methyl}-phosphonic acid]
[1]; [3]
  pIC50: < 4.00

## O=P(O)(O)c1ccc2cc(-c3cccs3)cc(-c3cccc4ccccc34)c2n1 [Example 17, (8-Naphthalen-1-yl-6-thiophen-2-yl-quinolin-2-yl)-phosphonic acid]
[2]
  pIC50: 6.58

## O=P(O)(O)c1ccc2cc(I)cc(-c3cccc4ccccc34)c2n1 [Example 21, (6-Iodo-8-naphthalen-1-yl-quinolin-2-yl)-phosphonic acid]
[2]
  pIC50: 6.29

## O=P(O)(O)c1ccc2cc(-c3ccsc3)cc(-c3cccc4ccccc34)c2n1 [Example 27c.ii]
[2]
  pIC50: 6.69

## O=P(O)(O)c1ccc2cc(-c3ccco3)cc(-c3cccc4ccccc34)c2n1 [Example 27d.ii]
[2]
  pIC50: 6.05

## O=P(O)(O)c1ccc2cc(-c3ccc4c(c3)OCO4)cc(-c3cccc4ccccc34)c2n1 [Example 27f.ii]
[2]
  pIC50: 6.01

## O=P(O)(O)c1ccc2cc(-c3cccc(O)c3)cc(-c3cccc4ccccc34)c2n1 [Example 28, [6-(3-Hydroxy-phenyl)-8-naphthalen-1-yl-quinolin-2-yl]-phosphonic acid]
[2]
  pIC50: 6.22

## CCOC(=O)Nc1cc(-c2cccc3ccccc23)c2nc(C(=O)O)ccc2c1 [Example 29, 6-Ethoxycarbonylamino-8-naphthalen-1-yl-quinoline-2-carboxylic acid]
[2]
  pIC50: 7.43
other
  melting point: 205 to 208 °C

## CCOc1c(N)cc(-c2cccc3ccccc23)c2nc(C(=O)O)ccc12 [Example 30, 6-Amino-5-ethoxy-8-naphthalen-1-yl-quinoline-2-carboxylic acid]
[2]
  pIC50: 7.62
other
  melting point: 182 to 184 °C

## Nc1cc(-c2cccc3ccccc23)c2nc(C(=O)O)ccc2c1 [Example 31, 6-Amino-8-naphthalen-1-yl-quinoline-2-carboxylic acid]
[2]
  pIC50: 7.16

## O=C(O)c1ccc2cc(I)cc(-c3cccc4ccccc34)c2n1 [Example 32, 6-Iodo-8-naphthalen-1-yl-quinoline-2-carboxylic acid lithium salt]
[2]
  pIC50: 6.80

## CCOc1c(I)cc(-c2cccc3ccccc23)c2nc(C(=O)O)ccc12 [Example 33, 5-Ethoxy-6-iodo-8-naphthalen-1-yl-quinoline-2-carboxylic acid lithium salt]
[2]
  pIC50: 7.25

## O=C(O)c1ccc2cc(-c3ccsc3)cc(-c3cccc4ccccc34)c2n1 [Example 34, 8-Naphthalen-1-yl-6-thiophen-3-yl-quinoline-2-carboxylic acid]
[2]
  pIC50: 7.00
other
  melting point: 164 to 166 °C

## O=C(O)c1ccc2cc(-c3cccs3)cc(-c3cccc4ccccc34)c2n1 [Example 35, 8-Naphthalen-1-yl-6-thiophen-2-yl-quinoline-2-carboxylic acid lithium salt]
[2]
  pIC50: 6.51

## O=C(O)c1ccc2cc(-c3ccc[nH]3)cc(-c3cccc4ccccc34)c2n1 [Example 36, 8-Naphthalen-1-yl-6-pyrrol-2-yl-quinoline-2-carboxylic acid]
[1]; [3]
  pIC50: 6.85

## Cc1cccc2c(-c3cccc4ccc(C(=O)O)nc34)cccc12 [Example 38, 8-(5-Methyl-naphthalen-1-yl)-quinoline-2-carboxylic acid]
[2]
  pIC50: 6.66

## Nc1cccc2c(-c3cccc4ccc(C(=O)O)nc34)cccc12 [Example 39, 8-(5-Amino-naphthalen-1-yl)-quinoline-2-carboxylic acid]
[2]
  pIC50: 6.57

## O=P(O)(O)/C=C/c1ccc2cccc(-c3cccc4ccccc34)c2n1 [Example 40, [(E)-2-(8-Naphthalen-1-yl-quinolin-2-yl)-vinyl]-phosphonic acid]
[1]; [3]
  pIC50: 8.15

## O=P(O)(O)CCc1ccc2cccc(-c3cccc4ccccc34)c2n1 [Example 41, [2-(8-Naphthalen-1-yl-quinolin-2-yl)-ethyl]-phosphonic acid]
[1]; [3]
  pIC50: 5.64

## Nc1cc(-c2cccc3ccccc23)c2nc(/C=C/P(=O)(O)O)ccc2c1 [Example 42, [(E)-2-(6-Amino-8-naphthalen-1-yl-quinolin-2-yl)-vinyl]-phosphonic acid]
[2]
  pIC50: 8.05

## O=[N+]([O-])c1cc(-c2cccc3ccccc23)c2nc(/C=C/P(=O)(O)O)ccc2c1 [Example 43, [(E)-2-(6-Nitro-8-naphthalen-1-yl-quinolin-2-yl)-vinyl]-phosphonic acid]
[2]
  pIC50: 6.99

## COC(=O)Nc1cc(-c2cccc3ccccc23)c2nc(/C=C/P(=O)(O)O)ccc2c1 [Example 44, [(E)-2-(6-Methoxycarbonylamino-8-naphthalen-1-yl-quinolin-2-yl)-vinyl]-phosphonic acid]
[2]
  pIC50: 7.85

## CC(=O)Nc1cc(-c2cccc3ccccc23)c2nc(/C=C/P(=O)(O)O)ccc2c1 [Example 45, [(E)-2-(6-Acetylamino-8-naphthalen-1-yl-quinolin-2-yl)-vinyl]-phosphonic acid]
[2]
  pIC50: 7.59

## CS(=O)(=O)Nc1cc(-c2cccc3ccccc23)c2nc(/C=C/P(=O)(O)O)ccc2c1 [Example 46, [(E)-2-(6-Methanesulfonylamino-8-naphthalen-1-yl-quinolin-2-yl)-vinyl]-phosphonic acid]
[2]
  pIC50: 7.04

## CS(=O)(=O)N(c1cc(-c2cccc3ccccc23)c2nc(/C=C/P(=O)(O)O)ccc2c1)S(C)(=O)=O [Example 47, {(E)-2-[6-(di-methanesulfonyl)amino-8-naphthalen-1-yl-quinolin-2-yl]-vinyl}-phosphonic acid]
[2]
  pIC50: 6.69

## O=C(Nc1cc(-c2cccc3ccccc23)c2nc(/C=C/P(=O)(O)O)ccc2c1)c1cccnc1 [Example 48, ((E)-2-{8-Naphthalen-1-yl-6-[(pyridine-3-carbonyl)-amino]-quinolin-2-yl}-vinyl)phosphonic acid]
[2]
  pIC50: 7.92

## CCOC(=O)Nc1cc(-c2cccc3ccccc23)c2nc(-c3nn[nH]n3)ccc2c1 [Example 50, N-[8-Naphthalen-1-yl-2-(2H-tetrazol-5-yl)-quinolin-6-yl]-carbamic acid ethyl ester]
[2]
  pIC50: 7.72

## CC(=O)Nc1cc(-c2cccc3ccccc23)c2nc(-c3nn[nH]n3)ccc2c1 [Example 51, N-[8-Naphthalen-1-yl-2-(2H-tetrazol-5-yl)-quinolin-6-yl]-acetamide]
[2]
  pIC50: 7.32

## O=C(O)c1ccc2cc(Cl)cc(-c3cccc4ccccc34)c2n1 [Example 54, 6-Chloro-8-naphthalen-1-yl-quinoline-2-carboxylic acid]
[1]; [3]
  pIC50: 6.47

## rac. 2-[(amino-sulfonyl)-amino]-3-[(8-naphthalen-1-yl-quinoline-2-carbonyl)-amino]-propionic acid [Example 15.b]
[1]; [3]
  pIC50: 4.27
